This experiment deals with ROS (Homo sapiens, UniProt P08922). As to the kind of experiment: In vitro ROS enzymatic reaction assay (HTRF, Cisbio). Also noted: ROS or EGFR enzyme, 0.008 ng/ul. The format is biochemical. The settings on record: for inhibition at 10 µM / inhibition at 5 µM / Kinase Inhib. 10 uM (%) / Kinase Inhib. 5 uM (%): ROS kinase; for inhibition at 10 µM / Kinase Inhib. 10 uM (%): compound at 10 uM; for inhibition at 10 µM: read-out: Kinase Inhib. 10 uM (%); for inhibition at 5 µM / Kinase Inhib. 5 uM (%): compound at 5 uM; for inhibition at 5 µM: read-out: Kinase Inhib. 5 uM (%). The protocol: The ROS enzymatic reactions were carried out with a high throughput screening platform for phosphor-detection of kinase activity. This platform based on homogeneous time resolved fluorescence (HTRF) technology from Cisbio Bioassays, Inc. (Cisbio). […] The reaction was allowed to proceed for 30 minutes at room temperature. An equal volume of detection buffer was then added to the reaction mix.

Structures are written as SMILES. pIC50: −log10 of the molar value. Where only a bound is given, the exact number is not on record here.

Chain of ROS (P08922 28-2347): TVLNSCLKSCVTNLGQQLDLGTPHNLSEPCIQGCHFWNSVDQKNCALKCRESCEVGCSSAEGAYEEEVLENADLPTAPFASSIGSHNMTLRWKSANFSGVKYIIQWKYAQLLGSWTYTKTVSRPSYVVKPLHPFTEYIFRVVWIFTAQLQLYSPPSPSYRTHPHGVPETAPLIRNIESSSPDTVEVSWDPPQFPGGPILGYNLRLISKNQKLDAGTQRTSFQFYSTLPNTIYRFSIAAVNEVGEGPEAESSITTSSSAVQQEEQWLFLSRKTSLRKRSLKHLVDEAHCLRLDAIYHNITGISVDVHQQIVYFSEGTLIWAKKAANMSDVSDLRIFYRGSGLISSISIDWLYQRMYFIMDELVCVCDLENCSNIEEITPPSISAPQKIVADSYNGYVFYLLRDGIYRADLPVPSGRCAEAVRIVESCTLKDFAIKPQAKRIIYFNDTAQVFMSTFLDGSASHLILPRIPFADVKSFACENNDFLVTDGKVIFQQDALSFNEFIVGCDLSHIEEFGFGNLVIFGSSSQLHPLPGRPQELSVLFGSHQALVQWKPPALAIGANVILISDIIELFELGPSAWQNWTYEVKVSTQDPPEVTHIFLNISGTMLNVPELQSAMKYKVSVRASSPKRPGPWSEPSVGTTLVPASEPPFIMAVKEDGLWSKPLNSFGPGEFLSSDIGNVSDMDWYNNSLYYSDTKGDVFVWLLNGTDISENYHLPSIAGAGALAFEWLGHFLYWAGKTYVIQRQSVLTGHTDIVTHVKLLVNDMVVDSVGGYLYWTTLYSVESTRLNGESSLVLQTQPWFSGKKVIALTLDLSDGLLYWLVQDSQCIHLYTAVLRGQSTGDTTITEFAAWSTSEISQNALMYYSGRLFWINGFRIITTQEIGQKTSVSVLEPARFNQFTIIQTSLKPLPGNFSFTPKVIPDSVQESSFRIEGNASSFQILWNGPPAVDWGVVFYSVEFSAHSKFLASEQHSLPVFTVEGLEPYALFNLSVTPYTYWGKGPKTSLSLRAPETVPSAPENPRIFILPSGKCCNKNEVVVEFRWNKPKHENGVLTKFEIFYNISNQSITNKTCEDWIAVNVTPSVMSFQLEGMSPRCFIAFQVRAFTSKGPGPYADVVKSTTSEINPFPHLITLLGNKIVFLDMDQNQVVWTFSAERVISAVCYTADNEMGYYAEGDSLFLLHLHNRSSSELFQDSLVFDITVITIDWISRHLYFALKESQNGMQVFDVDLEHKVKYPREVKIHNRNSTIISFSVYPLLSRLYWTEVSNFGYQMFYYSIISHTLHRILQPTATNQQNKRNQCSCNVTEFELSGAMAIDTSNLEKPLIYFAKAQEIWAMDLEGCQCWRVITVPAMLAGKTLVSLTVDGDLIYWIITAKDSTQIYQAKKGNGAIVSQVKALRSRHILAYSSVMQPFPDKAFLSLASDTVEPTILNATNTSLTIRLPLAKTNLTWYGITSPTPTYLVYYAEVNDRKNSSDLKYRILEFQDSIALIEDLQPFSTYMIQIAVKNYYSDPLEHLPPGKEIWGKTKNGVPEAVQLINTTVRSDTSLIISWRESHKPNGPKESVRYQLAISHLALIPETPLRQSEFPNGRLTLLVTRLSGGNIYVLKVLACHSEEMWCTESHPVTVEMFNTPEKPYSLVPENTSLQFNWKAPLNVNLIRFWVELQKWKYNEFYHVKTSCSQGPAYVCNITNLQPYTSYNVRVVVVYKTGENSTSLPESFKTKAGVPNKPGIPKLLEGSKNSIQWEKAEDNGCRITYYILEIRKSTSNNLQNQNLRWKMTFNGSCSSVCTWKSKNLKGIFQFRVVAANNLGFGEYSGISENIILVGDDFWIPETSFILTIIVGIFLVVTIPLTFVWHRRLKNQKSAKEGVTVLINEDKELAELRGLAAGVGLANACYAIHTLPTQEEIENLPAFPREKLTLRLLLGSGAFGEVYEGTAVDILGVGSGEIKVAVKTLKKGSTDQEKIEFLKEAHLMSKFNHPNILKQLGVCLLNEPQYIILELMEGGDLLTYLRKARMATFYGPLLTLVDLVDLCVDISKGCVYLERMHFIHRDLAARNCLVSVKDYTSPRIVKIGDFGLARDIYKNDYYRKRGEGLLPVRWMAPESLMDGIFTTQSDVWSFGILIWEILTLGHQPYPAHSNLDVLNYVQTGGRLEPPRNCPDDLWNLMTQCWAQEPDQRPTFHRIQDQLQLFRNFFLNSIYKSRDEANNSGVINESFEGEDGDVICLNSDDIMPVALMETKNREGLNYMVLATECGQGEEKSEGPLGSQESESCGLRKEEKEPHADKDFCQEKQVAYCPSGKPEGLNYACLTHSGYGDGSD

Turning to `Cc1ccc(Cn2c(NCc3nc4ccccc4n3C)nc3ccccc32)cc1` [drawing 218], the inhibition at 10 µM was 20.2%. For the compound `Clc1ccc(CNc2cc(-c3ccccc3)ncn2)cc1` [drawing 246], the inhibition at 10 µM came out at 21.2%. For the compound `CC(C)c1nc(Nc2ccc(C(=O)NC3CCCCC3)cc2)nc(Nc2ccc3ncsc3c2)n1` [drawing 319], the pIC50 was 6.12 and the inhibition at 5 µM stood at 98.8%.

With `CN(C)CC(C)(C)CNC(=O)c1cccc(Nc2nccc(Nc3ccc4ncsc4c3)n2)c1` [drawing 276], the pIC50 was 6.57 and the inhibition at 5 µM was found to be 101%. `O=C(NCc1ccc(F)cc1)c1cccc(Nc2nccc(Nc3ccc4ncsc4c3)n2)c1` [drawing 286]: the pIC50 is 6.24 and the inhibition at 5 µM was determined as 101%. Regarding `Cc1cccc(Nc2nccc(Nc3cccc(C(=O)Nc4ccc(F)cc4)c3)n2)c1` [drawing 245], the inhibition at 5 µM was found to be 47.3%. `CC1=NNC(=O)/C1=C\c1cn(-c2ccccc2)nc1-c1ccccc1` [drawing 266]: the pIC50 is 5.91 and the inhibition at 5 µM is 62%. Take `CCOc1nc(Nc2cccc(Cc3nc4ccccc4s3)c2)nc(C(C)C)n1`: the pIC50 is 5.03. For the compound `COc1ccc(NC(=O)CC2=Nc3cccc4cccc(c34)NC2=O)cc1` [drawing 345], the inhibition at 10 µM amounted to 26.5%. Compound `CC(C)c1nc(Nc2ccc(Br)cc2)nc(Nc2ccc3ncsc3c2)n1` gave a pIC50 of 6.08.

On to `O=C(NCC1CCCO1)c1cccc(Nc2nccc(Nc3ccc4ncsc4c3)n2)c1` (stereo not shown), for which the inhibition at 5 µM came to 101%. Turning to `Nc1nc(N)n(-c2ccccc2)/c(=N/c2ccccc2)n1` [drawing 258], the pIC50 is less than 4.00 and the inhibition at 10 µM was found to be 34.5%. On to `Cc1ccc(NC(=O)CCn2ccc3ccccc32)cc1` [drawing 335], for which the inhibition at 10 µM is 27.5%. For `Cc1[nH]c2nc(NCc3cccc([N+](=O)[O-])c3)nn2c(=O)c1Cc1ccccc1` [drawing 222], the “Kinase Inhib. 10 uM (%)” value was 23.83%. On to `CC(C)c1nc(Nc2ccc(C(=O)N3CCCC3)cc2)nc(Nc2ccc3ncsc3c2)n1` [drawing 320], for which the pIC50 was 5.73 and the inhibition at 5 µM stood at 92.5%. For the compound `COc1ccccc1C1C(C#N)=C(N)Oc2[nH]nc(C)c21` (stereo not shown), the “Kinase Inhib. 5 uM (%)” value came out at 27.58%. With `O=C(NCc1cccs1)c1cccc(Nc2nccc(Nc3ccc4ncsc4c3)n2)c1` [drawing 273], the pIC50 was 6.36 and the inhibition at 5 µM was determined as 101%.

As for `Cc1cccc(Nc2nccc(Nc3cccc(C(=O)NCc4ccccc4F)c3)n2)c1` [drawing 275], the inhibition at 5 µM came out at 33.3%. `COc1ccc(NC(=O)CCn2ccc3ccccc32)cc1` [drawing 337]: the inhibition at 10 µM was 29.5%. As to `Cc1cccc(Nc2ccnc(Nc3cccc(C(=O)N4CC=CCC4)c3)n2)c1` [drawing 234], the pIC50 is 7.10 and the inhibition at 5 µM came out at 94.2%. In the case of `O=C(c1cccc(Nc2nccc(Nc3ccc4ncsc4c3)n2)c1)N1CCCCCC1` [drawing 284], the pIC50 was 6.35 and the inhibition at 5 µM is 100%. On to `O=C1NCCN1CCN1C(=O)c2ccccc2N[C@H]1c1ccccc1` [drawing 254], for which the inhibition at 10 µM worked out at 20.3%.

For `Oc1[nH]nc2nnc(-c3ccccc3)c(-c3ccccc3)c12` [drawing 257], the pIC50 was 4.69 and the inhibition at 10 µM stood at 35.6%.

As to `CC(C)c1nc(Nc2ccc(C(=O)NCc3ccccc3)cc2)nc(Nc2ccc3ncsc3c2)n1` [drawing 322], the pIC50 is 5.43 and the inhibition at 5 µM was found to be 97.4%.

For the compound `Cc1cc(-c2ccccc2)c2ccc(N)nc2n1` [drawing 343], the inhibition at 10 µM was determined as 28.9%. Take `O=C(NCCc1ccc(F)cc1)c1cccc(Nc2nccc(Nc3ccc4ncsc4c3)n2)c1` [drawing 235]: the pIC50 is 6.89 and the “Kinase Inhib. 5 uM (%)” value was 100.68%. In the case of `O=C(NCCN1CCOCC1)c1cccc(Nc2nccc(Nc3ccc4ncsc4c3)n2)c1` [drawing 274], the inhibition at 5 µM turned out to be 101%. Turning to `COc1ccccc1-c1cc(C(F)F)n2ncc(C(=O)NCc3cccnc3)c2n1` [drawing 224], the negative-log IC50 (pIC50) was 5.40 and the inhibition at 10 µM stood at 35%. Turning to `Nc1nc(Nc2ccc(C(=O)NCc3ccco3)cc2)cc(Nc2ccc3ncsc3c2)n1` [drawing 238], the pIC50 is 5.42 and the inhibition at 5 µM is 49%.

As to `COc1ccc(C(NC(=O)c2n[nH]c(-c3ccccc3)c2C)c2ccncc2)cc1` (stereo not shown), the “Kinase Inhib. 5 uM (%)” value turned out to be 31.08%. `C[C@@H](Oc1cc(-c2cnn(C3CCNCC3)c2)cnc1N)c1c(Cl)ccc(F)c1Cl` [drawing 354]: the inhibition at 5 µM worked out at 100%. Same read-out and setting: then `C[C@H](O)CN(C[C@H](C)O)C(=O)c1cccc(Nc2nccc(Nc3ccc4ncsc4c3)n2)c1` [drawing 283], with 101%. On to `O=c1c(O)c(-c2ccc(O)c(O)c2)oc2cc(O)cc(O)c12` [drawing 269], for which the pIC50 was 7.30, the inhibition at 5 µM stood at 99.6% and the inhibition at 10 µM was 98.2%.

Consider `CC(C)c1nc(Nc2ccc(C(=O)NCC3CCCCC3)cc2)nc(Nc2cccc(Cc3nc4ccccc4s3)c2)n1` [drawing 317], for which the pIC50 was less than 5.30 and the inhibition at 5 µM was 25.3%. As to `Cc1cccc(Nc2nccc(Nc3cccc(C(=O)NCCCN4CCOCC4)c3)n2)c1` [drawing 279], the inhibition at 5 µM is 92.9%.

On to `O=c1cc(Oc2ccccc2)c(-c2nc[nH]n2)nn1-c1ccccc1` [drawing 228], for which the “Kinase Inhib. 10 uM (%)” value is 20.40%. For `Cc1cc(C)n(-c2cccc(C(=O)NCC3Cc4cc(Cl)cc(-c5cnccn5)c4O3)c2)n1` (stereo not shown), the pIC50 was less than 4.00 and the “Kinase Inhib. 10 uM (%)” value was determined as 29.68%. With `O=C1NN=C(c2ccccc2)/C1=C/Nc1ccccc1` [drawing 231], the inhibition at 5 µM amounted to 30.6%. Turning to `CC(C)c1nc(NCC2CCCCC2)nc(Nc2ccc3ncsc3c2)n1`, the pIC50 was 6.28. As to `O=C(NNc1cc(C(F)(F)F)ccc1Cl)c1cccnc1Oc1ccccc1` [drawing 253], the pIC50 is less than 4.00 and the inhibition at 10 µM turned out to be 31.2%. `O=C1c2ccccc2C(=O)N1C[C@H](O)Cn1nc(-c2cccs2)c2ccccc2c1=O` [drawing 268]: the “Kinase Inhib. 5 uM (%)” value worked out at 20.74%. On to `CCOC(=O)c1ccc(NC(=O)CCn2ccc3ccccc32)cc1` [drawing 336], for which the inhibition at 10 µM was determined as 24.5%. Consider `NC(=O)c1c(NC(=O)Nc2ccccc2)sc2c1CCCC2` [drawing 264], for which the inhibition at 5 µM worked out at 37.1%. Turning to `O=C(CC1=Nc2cccc3cccc(c23)NC1=O)NCc1cccc(I)c1` [drawing 346], the inhibition at 10 µM was 22.5%. In the case of `CC(C)c1nc(Nc2ccc(N)cc2)nc(Nc2cc(C3CC3)[nH]n2)n1` [drawing 324], the pIC50 is less than 5.30 and the inhibition at 5 µM is 20.4%.

In the case of `CC(C)c1nc(Nc2ccc(C(=O)N3CCOCC3)cc2)nc(Nc2ccc3ncsc3c2)n1` [drawing 323], the pIC50 is 6.48 and the inhibition at 5 µM is 65.7%.

With `O=C(NCC(c1cccs1)S(=O)(=O)c1ccc(F)cc1)c1ccccc1` (stereo not shown) [drawing 297], the pIC50 is 6.32 and the inhibition at 5 µM was determined as 85.1%. On to `CC(C)c1nc(Nc2ccc(C(=O)NCc3ccccc3)cc2)nc(Nc2cccc(Cc3nc4ccccc4s3)c2)n1` [drawing 316], for which the pIC50 is less than 5.30 and the inhibition at 5 µM worked out at 45.1%. In turn, `CC(C)c1nc(NCc2ccccc2)nc(Nc2ccc3ncsc3c2)n1` had a pIC50 of 6.45. Regarding `COc1ccc(N/C=C2\C(=O)NN=C2c2ccccc2)cc1` [drawing 232], the inhibition at 5 µM was 34.2%. `NS(=O)(=O)c1ccc(CCNC(=O)c2cc(-c3cccs3)nc3ccccc23)cc1` [drawing 221]: the inhibition at 10 µM amounted to 21.5%. `CC(C)c1nc(Nc2ccc3ncsc3c2)nc(NC2CCCCC2)n1`: the pIC50 is 5.82. On to `Nc1nc(Nc2ccc(C(=O)N3CCCC4CCCCC43)cc2)cc(Nc2ccc3ncsc3c2)n1` (stereo not shown), for which the “Kinase Inhib. 5 uM (%)” value is on record as 27.92%. Take `COc1ccccc1[C@@H]1C(C#N)=C(N)Oc2n[nH]c(C(F)(F)F)c21`: the pIC50 is 5.77 and the inhibition at 10 µM amounted to 61.6%. Turning to `O=C(c1ccccc1)c1nc(-c2ccco2)[nH]c1NCc1ccccc1`, the “Kinase Inhib. 5 uM (%)” value turned out to be 25.92%. `CCC(C)(C)NC(=O)c1cccc(Nc2nccc(Nc3ccc4ncsc4c3)n2)c1` [drawing 243]: the pIC50 is 6.21 and the inhibition at 5 µM stood at 101%. For `O=C(c1cccc(-c2noc(-c3n[nH]c4c3CCCC4)n2)c1)N1CCCCC1` [drawing 248], the pIC50 was 5.39 and the inhibition at 10 µM was determined as 39.5%.

As to `CC(C)c1nc(Nc2ccc(C(=O)N3CCCCC3)cc2)nc(Nc2ccc3ncsc3c2)n1` [drawing 318], the pIC50 is less than 5.30 and the inhibition at 5 µM came out at 58.6%. Take `Cc1ccc(CNC(=O)c2cccc(Nc3nccc(Nc4ccc5ncsc5c4)n3)c2)o1` [drawing 282]: the pIC50 was 6.71 and the inhibition at 5 µM was 99.1%. For `Cc1cccc(Nc2nccc(Nc3cccc(C(=O)N(C)CCCN(C)C)c3)n2)c1` [drawing 288], the inhibition at 5 µM stood at 98.6%. On to `O=C(NCC1Cc2cc(-c3cncnc3)cc(Cl)c2O1)c1cccc(Cn2cccn2)c1` (stereo not shown), for which the pIC50 was less than 4.00 and the “Kinase Inhib. 10 uM (%)” value came to 30.25%. With `Cc1cc(C)c(NC(=O)c2cc3ccccc3c(=O)s2)c(-c2cc(C)[nH]n2)c1` [drawing 263], the “Kinase Inhib. 5 uM (%)” value turned out to be 21.55%.

Take `Cc1cccc(Nc2nccc(Nc3cccc(C(=O)NCCN4CCOCC4)c3)n2)c1` [drawing 244]: the pIC50 is 5.68 and the inhibition at 5 µM amounted to 98.4%. `O=C(NNc1nc2ccccc2nc1Cc1ccccc1)c1cccc(Cl)c1` [drawing 229]: the inhibition at 10 µM is 24.3%.
